Results published in ChEMBL document CHEMBL4418478, “2,4,5-trisubstituted thiazole compounds,preparation methods,pharmaceutical compositions and medical uses thereof” (2016).

Each compound was assayed against Phospholipid transfer protein (Homo sapiens) (UniProt P55058) (assay: Inhibition of PLTP in plasma (unknown origin) at 150 uM using liver phospholipid, phospholipids liposome and HDL and TSE incubated for 1 hr relative to control).
Sequence of Phospholipid transfer protein (Homo sapiens) (P55058 whole entry): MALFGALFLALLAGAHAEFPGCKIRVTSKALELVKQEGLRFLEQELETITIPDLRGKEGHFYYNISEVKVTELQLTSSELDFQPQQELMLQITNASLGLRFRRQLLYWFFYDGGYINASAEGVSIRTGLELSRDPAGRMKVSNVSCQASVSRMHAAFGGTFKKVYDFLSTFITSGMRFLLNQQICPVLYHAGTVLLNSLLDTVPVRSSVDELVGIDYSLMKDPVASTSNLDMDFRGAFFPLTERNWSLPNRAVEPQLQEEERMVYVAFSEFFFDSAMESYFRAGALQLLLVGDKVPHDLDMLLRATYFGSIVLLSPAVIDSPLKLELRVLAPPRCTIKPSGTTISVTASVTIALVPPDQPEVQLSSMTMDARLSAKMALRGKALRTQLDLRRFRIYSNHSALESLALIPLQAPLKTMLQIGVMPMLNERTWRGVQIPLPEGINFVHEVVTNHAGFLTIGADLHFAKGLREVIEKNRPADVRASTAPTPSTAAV

SMILES | inhibition [%]
COc1ccc(-c2nc(N)sc2CC2CCCCC2)cc1 | 0
O=C(Nc1nc(-c2ccc(O)cc2)c(Cc2ccccc2)s1)c1ccc(Cl)cc1 | 0
COc1ccc(C(=O)Nc2nc(-c3ccc(O)cc3)c(Cc3ccccc3)s2)cc1 | 0
